target: NSD2 [1-1365] (Homo sapiens (Human), UniProt O96028); experiment: LC-MS/MS-based NSD2 enzymatic assay (SAH production); type: biochemical; settings: NSD2 biochemical activity, class symbols; read-out: NSD2 IC50
Description: LC-MS/MS-Based NSD2 Enzymatic Assay
This assay employed LC-MS/MS technology to monitor the SAH production from the NSD2 enzymatic reaction. The enzymatic reaction was performed in white proxiplate plus 384-well microplate (Perkin Elmer). The reaction mixture (10 μL) were composed of 8 nM NSD2 [1-1365], […] SAM (USB, 10601) and 400 nM nucleosome (purified from mouse liver) in reaction buffer (20 mM Tris-HCl, pH at 8.0, 0.01% Tween 20, 10 mM MgCl2, 50 mM NaCl, 1 mM DTT, 1 mM TCEP (pH7.5)). After 90 min incubation at room temperature, 3 μL quenching solution containing 2.5% TFA with 320 nM d4-SAH was added to stop the reaction.
For the inhibition assay, compound solutions were transferred into the wells by Mosquito™ (TTP LabTech). The inhibition assays were carried out by preincubating various concentrations of the inhibitor with 5 uL reaction mixture containing 16 nM NSD2 [1-1365] and 2 uM SAM (USB, 10601) in reaction buffer. After 20 min preincubation, 5 uL solution containing 800 nM nucleosome (purified from mouse liver) in reaction buffer was added to initiate the reaction. The reaction was stopped by 3 μL quenching solution containing 2.5% TFA with 320 nM d4-SAH after 90 min.
The SAH production from the enzymatic assays were monitored by LC-MS/MS on an API 4000 triple quadrupole mass spec with Turbolon Spray (Applied Biosystem) coupled with Prominenece UFLC(Shimazu). Liquid chromatography was performed on a Chromolith FastGradient HPLC column (RP-18e, 25-2 mm, from Merck) at a flow rate of 0.8 ml/min. The column was connected directly to the turbo ion electrospray operating in the positive-ion mode. Mobile phase A is 0.1% FA and 2% methanol in water and mobile phase B is 0.1% FA in ACN. Injection volume was 3 μl and the autosampler was kept at 4 degree. SAH and d4-SAH were simultaneously monitored. Data were acquired and processed by Analyst software.
To quantify the formed SAH, d4-SAH was added as internal standard (IS). A series of SAH (Sigma, A9384) solution at varying concentration (1-500 nM in reaction buffer) was mixed with quenching solution mentioned above. Then LC-MS/MS was carried out on API 4000 LC/MS/MS system to detect both SAH and d4-SAH. The plot of SAH peak area/IS peak area vs SAH concentration was used to generate the normalization factor of SAH. The SAH production from real enzymatic reaction was derived from the standard curve of SAH. The down-limit of our system for the detection of SAH is around 1-2 nM, and the linear range can reach up to 500 nM.

NSD2 [1-1365], sequence (O96028 whole entry): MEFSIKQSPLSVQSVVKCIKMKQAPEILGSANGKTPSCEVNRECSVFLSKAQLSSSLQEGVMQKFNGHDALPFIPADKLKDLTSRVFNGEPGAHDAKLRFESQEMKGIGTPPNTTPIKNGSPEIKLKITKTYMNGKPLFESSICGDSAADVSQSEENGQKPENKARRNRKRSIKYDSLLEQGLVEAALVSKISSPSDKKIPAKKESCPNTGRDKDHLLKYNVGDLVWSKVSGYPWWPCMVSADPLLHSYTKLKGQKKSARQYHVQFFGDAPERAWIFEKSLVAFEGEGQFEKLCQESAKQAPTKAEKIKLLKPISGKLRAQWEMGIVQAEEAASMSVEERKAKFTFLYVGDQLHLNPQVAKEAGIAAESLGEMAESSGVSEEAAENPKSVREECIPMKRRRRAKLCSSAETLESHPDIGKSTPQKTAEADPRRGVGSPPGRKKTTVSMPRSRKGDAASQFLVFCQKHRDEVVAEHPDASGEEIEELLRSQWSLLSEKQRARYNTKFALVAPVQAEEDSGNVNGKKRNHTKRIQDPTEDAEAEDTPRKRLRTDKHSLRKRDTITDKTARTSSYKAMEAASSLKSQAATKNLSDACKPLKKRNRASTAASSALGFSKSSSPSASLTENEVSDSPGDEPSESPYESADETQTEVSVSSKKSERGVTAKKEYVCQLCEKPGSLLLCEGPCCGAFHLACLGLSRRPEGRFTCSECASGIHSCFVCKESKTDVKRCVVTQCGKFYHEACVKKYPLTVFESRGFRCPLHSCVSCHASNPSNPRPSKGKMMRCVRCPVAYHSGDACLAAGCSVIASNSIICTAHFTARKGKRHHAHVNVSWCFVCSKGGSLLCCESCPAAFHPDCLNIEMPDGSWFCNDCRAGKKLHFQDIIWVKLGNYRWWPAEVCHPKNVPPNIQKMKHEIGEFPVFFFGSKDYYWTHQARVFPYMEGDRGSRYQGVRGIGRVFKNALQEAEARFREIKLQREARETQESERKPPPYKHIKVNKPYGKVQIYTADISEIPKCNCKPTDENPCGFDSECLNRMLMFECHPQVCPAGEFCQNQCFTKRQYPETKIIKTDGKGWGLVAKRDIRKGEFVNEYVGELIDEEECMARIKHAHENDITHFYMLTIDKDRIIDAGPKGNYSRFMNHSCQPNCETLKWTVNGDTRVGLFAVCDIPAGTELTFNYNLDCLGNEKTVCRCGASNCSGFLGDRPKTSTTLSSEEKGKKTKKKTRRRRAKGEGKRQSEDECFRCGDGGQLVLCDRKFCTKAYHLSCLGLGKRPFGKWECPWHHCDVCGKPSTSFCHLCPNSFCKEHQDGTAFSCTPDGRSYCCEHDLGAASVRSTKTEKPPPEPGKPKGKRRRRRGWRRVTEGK

| SMILES | IC50 [nM] |
| --- | --- |
| CN(C)C(=O)CC1(N)CCCN(c2cnc(-c3ccc(F)c(F)c3)cc2Cn2cnc3c(N)ncc(Cl)c32)C1 (stereo not shown) [Example 68, 2-(3-amino-1-(4-((4-amino-7-] | 10 to 1000 |
| Nc1ncnc2c1ncn2Cc1cc(-c2ccc(F)c(F)c2)ncc1N1CCCC(N)(C(=O)C2CCCC2)C1 (stereo not shown) [Example 100, (3-amino-1-(4-((6-amino-9H-purin-9-yl)methyl)-6-(3,4-difluorophenyl)pyridin-3-yl)piperidin-3-yl)(cyclopentyl)methanone] | 1 to 10 |
| Nc1ncnc2c1ncn2Cc1cc(-c2ccc(C(F)F)cc2F)ncc1N1CCC[C@](N)([C@H](O)C(F)F)C1 [Example 137, (S)-1-((R)-3-amino-1-(4-((6-amino-9H-purin-9-yl)methyl)-6-(4-(difluoromethyl)-2-fluorophenyl)pyridin-3-yl)piperidin-3-yl)-2,2-difluoroethan-1-ol] | 10 to 1000 |
| Cn1ncc2cc(-c3cc(Cn4cnc5c(N)ncnc54)c(N4CCC[C@](N)([C@H](O)C(F)F)C4)cn3)c(F)cc21 [Example 143, (S)-1-((R)-3-amino-1-(4-((6-amino-9H-purin-9-yl)methyl)-6-(6-fluoro-1-methyl-1H-indazol-5-yl)pyridin-3-yl)piperidin-3-yl)-2,2-difluoroethan-1-ol] | 10 to 1000 |

same assay, conditions: read-out: NSD2 IC50

| SMILES | IC50 [nM] |
| --- | --- |
| CS(=O)(=O)CC1(N)CCCN(c2cnc(-c3ccc(F)c(F)c3)cc2Cn2cnc3c(N)ncnc32)C1 (stereo not shown) [Example 298, 9-((5-(3-amino-3-((methylsulfonyl)methyl)piperidin-1-yl)-2-(3,4-difluorophenyl)pyridin-4-yl)methyl)-9H-purin-6-amine] | > 1000 |
| N#Cc1ccc(-c2cc(Cn3cnc4c(N)ncnc43)c(N3CCCC(N)(c4cccc(Cl)n4)C3)cn2)cc1F (stereo not shown) [Example 223] | 10 to 1000 |
| Nc1ncnc2c1ncn2Cc1cc(-c2ccc(F)c(F)c2)ncc1N1CCC[C@@H](N)[C@H]1COC(F)F [Example 311, 9-((5-((2S,3R)-3-amino-2-((difluoromethoxy)methyl)piperidin-1-yl)-2-(3,4-difluorophenyl)pyridin-4-yl)methyl)-9H-purin-6-amine] | 10 to 1000 |
| Nc1nccc2c1ncn2Cc1cc(-c2ccc(F)cc2)ncc1N1CCC[C@](N)(c2ccn(C(F)F)n2)C1 [Example 279, (R)-1-((5-(3-amino-3-(1-(difluoromethyl)-1H-pyrazol-3-yl)piperidin-1-yl)-2-(4-fluorophenyl)pyridin-4-yl)methyl)-1H-imidazo[4,5-c]pyridin-4-amine] | 1 to 10 |
| Nc1ncnc2c1ncn2Cc1cc(-c2ccc(F)c(F)c2)ncc1N1CCCC(N)C1=O (stereo not shown) [Example 324, 3-amino-1-(4-((6-amino-9H-purin-9-yl)methyl)-6-(3,4-difluorophenyl)pyridin-3-yl)piperidin-2-one] | > 1000 |
| Nc1ncnc2c1ncn2Cc1cc(-c2ccc(F)c(F)c2)ncc1N1CCC[C@@H](N)[C@H]1c1ccccc1 [Example 323, 9-((5-((2R,3R)-3-amino-2-phenylpiperidin-1-yl)-2-(3,4-difluorophenyl)pyridin-4-yl)methyl)-9H-purin-6-amine] | > 1000 |
| C[C@H]1CC[C@@H](N)CN1c1cnc(-c2ccc(F)c(F)c2)cc1Cn1cnc2c(N)ncnc21 [Example 310, 9-((5-((2S,5R)-5-amino-2-methylpiperidin-1-yl)-2-(3,4-difluorophenyl)pyridin-4-yl)methyl)-9H-purin-6-amine] | > 1000 |
| Nc1ncnc2c1ncn2Cc1cc(-c2ccc(F)c(F)c2)ncc1N1CCC[C@@H](N)[C@H]1CO [Example 312, ((2S,3R)-3-amino-1-(4-((6-amino-9H-purin-9-yl)methyl)-6-(3,4-difluorophenyl)pyridin-3-yl)piperidin-2-yl)methanol] | 10 to 1000 |
| Nc1ncnc2c1ncn2Cc1cc(-c2ccc(F)c(F)c2)ncc1N1CCC[C@@H](N)[C@H]1[C@@H](O)C(F)(F)F [Example 316, (R)-1-((2S,3R)-3-amino-1-(4-((6-amino-9H-purin-9-yl)methyl)-6-(3,4-difluorophenyl)pyridin-3-yl)piperidin-2-yl)-2,2,2-trifluoroethan-1-ol] | > 1000 |

— patent publication US11420970B1 (NOVARTIS AG, priority 2019, dated 2022)
